From patent US20240327408A1, “COMPOUNDS CONTAINING TETRAHYDRONAPHTHYRIDINONE OR TETRAHYDROPYRIDOPYRIMIDINONE SKELETON, PREPARATION METHOD THEREFOR AND PHARMACEUTICAL USE THEREOF” (CHINA PHARMACEUTICAL UNIVERSITY, priority 2021, published 2024)

How the values were obtained:
MV4; 11 cells = assay: inhibiting the growth of MV4; 11 cells; type: cell-based; conditions: Homo sapiens
hClpP = biological target: T1, hClpP (Homo sapiens, UniProt Q16740); assay: activating ClpP hydrolysis of FITC-casein (fluorescence kinetic detection); type: biochemical; conditions: hClpP 1 μM, FITC-Casein 4 μM, 37° C.
T1 construct: made in house
T1 sequence (Q16740 57-277): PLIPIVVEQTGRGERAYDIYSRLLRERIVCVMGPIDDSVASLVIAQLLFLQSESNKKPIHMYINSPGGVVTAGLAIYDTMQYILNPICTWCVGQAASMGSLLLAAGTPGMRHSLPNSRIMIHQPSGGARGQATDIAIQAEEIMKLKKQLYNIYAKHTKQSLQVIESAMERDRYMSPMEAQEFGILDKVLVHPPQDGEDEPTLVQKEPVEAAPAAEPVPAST
Protocol: The specific procedures were as follows:
Test compounds were each prepared into a 100 mM stock solution in DMSO and stored. and 1 μL of stock solution of each of the compounds was taken and diluted to 10 mM by adding 9 μL of DMSO for later use.
The compounds of formula I of the present invention were each diluted at concentrations of 200 μM, 50 μM, 10 μM, 2 μM, 500 nM, 100 nM, 20 nM, and 2 nM in an assay buffer. 50 μL of each of the compounds at different concentrations was added to each well, with 2 replicate wells.
The protein was diluted to 4 μM in an assay buffer. 25 μL of protein was added to each well, and incubated at 37° C. for 30 min. The final concentration was 1 μM.
25 μL of FITC-Casein was added to each well. The final concentration was 4 μM. The mixture was immediately loaded on the machine for detection.
FITC-Casein and FITC-Casein+ClpP were used as negative controls.
The detection temperature was 37° C. The plate was shaken for 3 s. […] Kinetic parameters were set, and scanning was performed once every 1 min for 15 min.

Row | IC50 (MV4; 11 cells) | EC50 (hClpP) | SMILES
1 | < 1000 nM | < 1000 nM | COc1ccc(Cn2c(=O)c3c(c4cccnc42)CCN(Cc2cccc(Cl)c2)C3)cc1 [Compound I-100, 6-(4-methoxybenzyl)-3-(3-chlorobenzyl)-2,3,4,6-tetrahydropyrido[3,4-c][1,8]naphthyridine-5-(1H)-one]
2 | < 1000 nM | < 1000 nM | O=c1c2c(c3cncnc3n1Cc1ccc(C(F)(F)F)cc1)CCN(Cc1ccccc1)C2 [Compound I-81, 8-benzyl-5-(4-(trifluoromethyl)benzyl)-7,8,9,10-tetrahydropyrimidinyl[4,5-c][2,7]naphthyridine-6-(5H)-one]
3 | 1000 to 10000 nM | 1000 to 10000 nM | N#Cc1cccc(CN2CCc3c(c(=O)n(Cc4ccc(C(F)(F)F)cc4)c4ccnn34)C2)c1 [Compound I-160, 4-(4-trifluoromethylbenzyl)-7-(3-cyanobenzyl)-6,7,8,9-tetrahydropyrazolo[1,5-a]pyrido[3,4-e]pyrimidine-5(4H)-one]
4 | < 1000 nM | < 1000 nM | COc1ccc(Cn2c(=O)c3c(c4cccnc42)CCN(Cc2cccc(C#N)c2)C3)cc1 [Compound I-87, 6-(4-methoxybenzyl)-3-(3-cyanobenzyl)-2,3,4,6-tetrahydropyrido[3,4-c][1,8]naphthyridine-5-(1H)-one]
5 | < 1000 nM | < 1000 nM | O=c1c2c(n3ccnc3n1Cc1ccc(C(F)(F)F)cc1)CCN(Cc1cccc(F)c1)C2 [Compound I-128, 7-(3-fluorobenzyl)-4-(4-trifluoromethylbenzyl)-6,7,8,9-tetrahydroimidazo[1,2-a]pyrido[3,4-e]pyrimidine-5(4H)-one]
6 | < 1000 nM | < 1000 nM | N#Cc1cccc(CN2CCc3c(c(=O)n(Cc4ccc(C(F)(F)F)cc4)c4ncccc34)C2)c1 [Compound I-83, 6-(4-trifluoromethylbenzyl)-3-(3-cyanobenzyl)-2,3,4,6-tetrahydropyrido[3,4-c][1,8]naphthyridine-5-(1H)-one]
7 | < 1000 nM | < 1000 nM | Cc1cccc(CN2CCc3c(c(=O)n(Cc4ccc(Cl)cc4)c4nccn34)C2)c1 [Compound I-120, 7-(3-methylbenzyl)-4-(4-chlorobenzyl)-6,7,8,9-tetrahydroimidazo[1,2-a]pyrido[3,4-e]pyrimidine-5(4H)-one]
8 | < 1000 nM | < 1000 nM | Cc1ccc(Cn2c(=O)c3c(c4cccnc42)CCN(Cc2cccc(F)c2)C3)cc1 [Compound I-93, 6-(4-methylbenzyl)-3-(3-fluorobenzyl)-2,3,4,6-tetrahydropyrido[3,4-c][1,8]naphthyridine-5-(1H)-one]
9 | < 1000 nM | < 1000 nM | CCc1ccc(Cn2c(=O)c3c(n4ccnc24)CCN(Cc2cccc(Cl)c2)C3)cc1 [Compound I-139, 7-(3-chlorobenzyl)-4-(4-ethylbenzyl)-6,7,8,9-tetrahydroimidazo[1,2-a]pyrido[3,4-e]pyrimidine-5(4H)-one]
10 | 1000 to 10000 nM | 1000 to 10000 nM | N#Cc1cccc(CN2CCc3c(c(=O)n(Cc4ccc(Cl)cc4)c4ncnn34)C2)c1 [Compound I-155, 4-(4-chlorobenzyl)-7-(3-cyanobenzyl)-6,7,8,9-tetrahydropyrido[3,4-e][1,2,4]triazolo[1,5-a]pyrimidine-5(4H)-one]
11 | < 1000 nM | < 1000 nM | COc1ccc(Cn2c(=O)c3c(n4ccnc24)CCN(Cc2ccccc2)C3)cc1 [Compound I-142, 7-benzyl-4-(4-methoxybenzyl)-6,7,8,9-tetrahydroimidazo[1,2-a]pyrido[3,4-e]pyrimidine-5(4H)-one]
12 | < 1000 nM | < 1000 nM | COc1ccc(Cn2c(=O)c3c(c4cccnc42)CCN(Cc2cccc(F)c2)C3)cc1 [Compound I-99, 6-(4-methoxybenzyl)-3-(3-fluorobenzyl)-2,3,4,6-tetrahydropyrido[3,4-c][1,8]naphthyridine-5-(1H)-one]
13 | < 1000 nM | < 1000 nM | Cc1ccc(Cn2c(=O)c3c(n4ccnc24)CCN(Cc2cccc(Cl)c2)C3)cc1 [Compound I-134, 7-(3-chlorobenzyl)-4-(4-methylbenzyl)-6,7,8,9-tetrahydroimidazo[1,2-a]pyrido[3,4-e]pyrimidine-5(4H)-one]
14 | < 1000 nM | < 1000 nM | CCc1ccc(Cn2c(=O)c3c(c4cccnc42)CCN(Cc2cccc(C#N)c2)C3)cc1 [Compound I-94, 6-(4-ethylbenzyl)-3-(3-cyanobenzyl)-2,3,4,6-tetrahydropyrido[3,4-c][1,8]naphthyridine-5-(1H)-one]
15 | < 1000 nM | < 1000 nM | O=c1c2c(n3ccnc3n1Cc1ccc(Cl)cc1)CCN(Cc1ccccc1)C2 [Compound I-117, 7-benzyl-4-(4-chlorobenzyl)-6,7,8,9-tetrahydroimidazo[1,2-a]pyrido[3,4-e]pyrimidine-5(4H)-one]
16 | < 1000 nM | < 1000 nM | O=c1c2c(c3cccnc3n1Cc1ccc(Cl)cc1)CCN(Cc1cccc(Cl)c1)C2 [Compound I-75, 3-(3-chlorobenzyl)-6-(4-chlorobenzyl)-2,3,4,6-tetrahydropyrido[3,4-c][1,8]naphthyridine-5-(1H)-one]
17 | 1000 to 10000 nM | 1000 to 10000 nM | O=c1c2c(n3ccnc3n1Cc1ccc3c(c1)OCCO3)CCN(Cc1cccc(Cl)c1)C2 [Compound I-148, 7-(3-chlorobenzyl)-4-((2,3-dihydro[1,4]benzodioxin-6-yl)methyl)-6,7,8,9-tetrahydroimidazo[1,2-a]pyrido[3,4-e]pyrimidine-5(4H)-one]

The next lines start with the molecule.

Row | SMILES | IC50 (MV4; 11 cells) | EC50 (hClpP)
18 | Cn1ccnc1CN1CCc2c(c(=O)n(Cc3ccccc3)c3ncccc23)C1 [Compound I-31, 6-benzyl-3-((1-methyl-1H-imidazol-2-yl)methyl)-2,3,4,6-tetrahydropyrido[3,4-c][1,8]naphthyridine-5-(1H)-one] | 1000 to 10000 nM | 10000 to 100000 nM
19 | O=c1c2c(c3cccnc3n1Cc1ccc(Cl)cc1)CCN(Cc1cccc(F)c1)C2 [Compound I-74, 3-(3-fluorobenzyl)-6-(4-chlorobenzyl)-2,3,4,6-tetrahydropyrido[3,4-c][1,8]naphthyridine-5-(1H)-one] | < 1000 nM | < 1000 nM
20 | O=c1c2c(c3cccnc3n1Cc1ccccc1)CCN(Cc1ccc(F)cc1)C2 [Compound I-18, 6-benzyl-3-(4-fluorobenzyl)-2,3,4,6-tetrahydropyrido[3,4-c][1,8]naphthyridine-5-(1H)-one] | < 1000 nM | 1000 to 10000 nM
21 | Cc1ccc(CN2CCc3c(c(=O)n(Cc4ccccc4)c4ncccc34)C2)cc1 [Compound I-21, 6-benzyl-3-(4-methylbenzyl)-2,3,4,6-tetrahydropyrido[3,4-c][1,8]naphthyridine-5-(1H)-one] | < 1000 nM | 1000 to 10000 nM
22 | CCc1cccc(CN2CCc3c(c(=O)n(Cc4ccccc4)c4ncccc34)C2)c1 [Compound I-16, 6-benzyl-3-(3-ethylbenzyl)-2,3,4,6-tetrahydropyrido[3,4-c][1,8]naphthyridine-5-(1H)-one] | < 1000 nM | 1000 to 10000 nM
23 | Cc1noc(C)c1Cn1c(=O)c2c(c3cccnc31)CCN(Cc1ccccc1)C2 [Compound I-68, 3-benzyl-6-((3,5-dimethylisoxazol-4-yl)methyl)-2,3,4,6-tetrahydropyrido[3,4-c][1,8]naphthyridine-5-(1H)-one] | 1000 to 10000 nM | 10000 to 100000 nM
24 | O=c1c2c(c3cccnc3n1Cc1cccc(F)c1)CCN(Cc1ccccc1)C2 [Compound I-46, 3-benzyl-6-(3-fluorobenzyl)-2,3,4,6-tetrahydropyrido[3,4-c][1,8]naphthyridine-5-(1H)-one] | < 1000 nM | < 1000 nM
25 | COc1cccc(CN2CCc3c(c(=O)n(Cc4ccccc4)c4ncccc34)C2)c1 [Compound I-17, 6-benzyl-3-(3-methoxybenzyl)-2,3,4,6-tetrahydropyrido[3,4-c][1,8]naphthyridine-5-(1H)-one] | < 1000 nM | 1000 to 10000 nM
26 | Cc1noc(C)c1CN1CCc2c(c(=O)n(Cc3ccccc3)c3ncccc23)C1 [Compound I-34, 6-benzyl-3-((3,5-dimethylisoxazol-4-yl)methyl)-2,3,4,6-tetrahydropyrido[3,4-c][1,8]naphthyridine-5-(1H)-one] | 1000 to 10000 nM | 10000 to 100000 nM
27 | Cc1cc(CN2CCc3c(c(=O)n(Cc4ccccc4)c4ncccc34)C2)n(C)n1 [Compound I-26, 6-benzyl-3-((1,3-dimethyl-1H-pyrazol-5-yl)methyl)-2,3,4,6-tetrahydropyrido[3,4-c][1,8]naphthyridine-5-(1H)-one] | 1000 to 10000 nM | 10000 to 100000 nM
28 | Cn1cncc1Cn1c(=O)c2c(c3cccnc31)CCN(Cc1ccccc1)C2 [Compound I-67, 3-benzyl-6-((1-methyl-1H-imidazol-5-yl)methyl)-2,3,4,6-tetrahydropyrido[3,4-c][1,8]naphthyridine-5-(1H)-one] | 1000 to 10000 nM | 10000 to 100000 nM
29 | O=c1c2c(c3cccnc3n1Cc1cccc(Cl)c1)CCN(Cc1ccccc1)C2 [Compound I-47, 3-benzyl-6-(3-chlorobenzyl)-2,3,4,6-tetrahydropyrido[3,4-c][1,8]naphthyridine-5-(1H)-one] | < 1000 nM | < 1000 nM
30 | O=c1c2c(c3cccnc3n1Cc1cccnc1)CCN(Cc1ccccc1)C2 [Compound I-62, 3-benzyl-6-(pyridin-3-ylmethyl)-2,3,4,6-tetrahydropyrido[3,4-c][1,8]naphthyridine-5-(1H)-one] | 1000 to 10000 nM | 10000 to 100000 nM
